Publication PMC6472032 (Marine Drugs, 2019)
Positions of bridges follow the written chain, without caps; N, C: chain ends. Non-standard residues stand in square brackets, D forms with d. Residues, ends and D or L forms follow the SMILES beside them.

Key:
rat α9α10 nAChR = rat α9α10 nAChR (Rattus norvegicus, UniProt P43144+Q9JLB5); experiment: cell-based; conditions: for inhibition at 0.1 µM: read-out: inhibition of ACh-evoked current amplitude; for inhibition of ACh-evoked current amplitude: 0.1 µM
Sequence of rat α9α10 nAChR (P43144 26-479 limits assumed): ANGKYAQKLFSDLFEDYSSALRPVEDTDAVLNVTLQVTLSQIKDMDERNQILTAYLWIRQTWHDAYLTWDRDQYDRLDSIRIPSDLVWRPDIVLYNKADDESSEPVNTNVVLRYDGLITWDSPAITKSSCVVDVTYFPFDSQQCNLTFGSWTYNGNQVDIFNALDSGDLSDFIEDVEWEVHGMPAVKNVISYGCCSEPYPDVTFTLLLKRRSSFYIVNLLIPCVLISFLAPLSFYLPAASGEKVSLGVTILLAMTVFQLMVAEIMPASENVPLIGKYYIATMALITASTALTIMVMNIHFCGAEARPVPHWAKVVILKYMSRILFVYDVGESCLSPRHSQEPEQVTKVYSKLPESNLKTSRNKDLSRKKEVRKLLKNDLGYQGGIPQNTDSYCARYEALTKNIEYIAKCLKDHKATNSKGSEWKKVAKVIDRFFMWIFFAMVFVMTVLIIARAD
Sequence of rat α9α10 nAChR (Q9JLB5 25-447 limits assumed): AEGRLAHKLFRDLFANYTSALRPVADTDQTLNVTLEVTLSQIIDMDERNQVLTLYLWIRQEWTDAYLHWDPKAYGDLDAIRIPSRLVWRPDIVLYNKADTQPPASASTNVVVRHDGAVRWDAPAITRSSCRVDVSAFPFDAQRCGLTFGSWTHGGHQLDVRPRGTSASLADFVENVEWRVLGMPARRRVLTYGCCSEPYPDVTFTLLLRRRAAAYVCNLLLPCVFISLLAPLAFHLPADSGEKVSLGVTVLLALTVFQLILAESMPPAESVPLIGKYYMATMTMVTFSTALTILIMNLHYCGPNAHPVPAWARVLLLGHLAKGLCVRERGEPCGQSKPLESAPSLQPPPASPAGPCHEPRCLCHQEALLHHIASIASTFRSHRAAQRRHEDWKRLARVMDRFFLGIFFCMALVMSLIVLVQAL

human α9α10 nAChR = human α9α10 nAChR (Homo sapiens, UniProt Q9GZZ6+Q9UGM1); experiment: cell-based; conditions: for inhibition at 10 µM: read-out: inhibition of ACh-evoked currents
Sequence of human α9α10 nAChR (Q9UGM1 26-479 limits assumed): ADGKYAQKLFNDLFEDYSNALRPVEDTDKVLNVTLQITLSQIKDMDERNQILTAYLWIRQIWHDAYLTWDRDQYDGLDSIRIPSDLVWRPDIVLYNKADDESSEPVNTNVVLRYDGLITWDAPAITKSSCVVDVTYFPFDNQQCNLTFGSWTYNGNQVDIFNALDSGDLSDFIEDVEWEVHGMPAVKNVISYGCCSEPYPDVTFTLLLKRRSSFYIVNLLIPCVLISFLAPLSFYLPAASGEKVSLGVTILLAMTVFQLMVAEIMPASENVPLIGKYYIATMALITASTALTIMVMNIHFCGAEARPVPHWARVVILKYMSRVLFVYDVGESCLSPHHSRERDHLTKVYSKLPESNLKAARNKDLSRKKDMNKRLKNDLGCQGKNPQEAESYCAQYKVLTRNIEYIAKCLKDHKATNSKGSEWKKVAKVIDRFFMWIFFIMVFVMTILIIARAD
Sequence of human α9α10 nAChR (Q9GZZ6 25-450 limits assumed): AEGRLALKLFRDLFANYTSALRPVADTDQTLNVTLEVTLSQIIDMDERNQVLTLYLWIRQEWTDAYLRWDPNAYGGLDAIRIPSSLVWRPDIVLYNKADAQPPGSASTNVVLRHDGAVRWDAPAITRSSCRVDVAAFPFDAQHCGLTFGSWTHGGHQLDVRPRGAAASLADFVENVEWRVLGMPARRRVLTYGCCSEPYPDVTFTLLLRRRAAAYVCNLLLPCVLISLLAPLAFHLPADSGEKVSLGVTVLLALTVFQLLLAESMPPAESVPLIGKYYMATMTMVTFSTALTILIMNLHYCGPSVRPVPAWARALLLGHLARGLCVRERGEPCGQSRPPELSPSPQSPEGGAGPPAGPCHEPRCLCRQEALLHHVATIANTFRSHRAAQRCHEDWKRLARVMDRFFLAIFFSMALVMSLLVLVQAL

rat α3β2 nAChR = rat α3β2 nAChR (Rattus norvegicus, UniProt P04757+P12390); format: cell-based
rat α4β4 nAChR = rat α4β4 nAChR (Rattus norvegicus, UniProt P09483+P12392); format: cell-based
Sequence of rat α4β4 nAChR (P09483 31-630 limits assumed): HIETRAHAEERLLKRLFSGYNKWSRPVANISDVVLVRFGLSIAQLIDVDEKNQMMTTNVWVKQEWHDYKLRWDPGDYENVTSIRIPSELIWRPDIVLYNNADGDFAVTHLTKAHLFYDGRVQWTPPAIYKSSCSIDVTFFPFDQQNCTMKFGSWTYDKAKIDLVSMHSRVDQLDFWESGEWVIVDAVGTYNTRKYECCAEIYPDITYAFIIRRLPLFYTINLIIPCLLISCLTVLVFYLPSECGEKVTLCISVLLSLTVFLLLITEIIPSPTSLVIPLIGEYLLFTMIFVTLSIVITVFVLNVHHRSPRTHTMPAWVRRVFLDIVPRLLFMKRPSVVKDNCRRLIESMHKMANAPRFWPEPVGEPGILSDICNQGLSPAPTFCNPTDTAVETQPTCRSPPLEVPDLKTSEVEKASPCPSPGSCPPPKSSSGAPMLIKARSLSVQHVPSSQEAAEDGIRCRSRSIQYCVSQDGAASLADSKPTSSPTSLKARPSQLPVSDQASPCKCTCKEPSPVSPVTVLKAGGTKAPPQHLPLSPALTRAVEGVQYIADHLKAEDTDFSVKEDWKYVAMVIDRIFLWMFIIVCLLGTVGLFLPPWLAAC
Sequence of rat α4β4 nAChR (P12392 21-495 limits assumed): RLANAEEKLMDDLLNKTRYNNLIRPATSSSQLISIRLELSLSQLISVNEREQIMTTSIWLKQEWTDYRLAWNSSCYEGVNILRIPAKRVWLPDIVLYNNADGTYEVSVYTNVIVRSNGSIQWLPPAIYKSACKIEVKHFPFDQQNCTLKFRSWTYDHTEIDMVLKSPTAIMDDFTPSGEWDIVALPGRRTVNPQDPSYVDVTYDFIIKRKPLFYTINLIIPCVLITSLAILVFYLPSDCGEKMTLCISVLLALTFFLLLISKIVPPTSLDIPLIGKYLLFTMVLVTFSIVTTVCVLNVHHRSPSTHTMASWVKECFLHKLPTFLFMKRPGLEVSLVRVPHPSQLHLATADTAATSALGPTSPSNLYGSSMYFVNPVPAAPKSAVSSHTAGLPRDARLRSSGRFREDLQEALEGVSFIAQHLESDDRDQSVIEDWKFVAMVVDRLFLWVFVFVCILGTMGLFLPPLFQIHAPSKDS

rat α4β2 nAChR = rat α4β2 nAChR (Rattus norvegicus, UniProt P09483+P12390); format: cell-based
rat α2β4 nAChR = rat α2β4 nAChR (Rattus norvegicus, UniProt P12389+P12392); format: cell-based
Sequence of rat α2β4 nAChR (P12389 28-511 limits assumed): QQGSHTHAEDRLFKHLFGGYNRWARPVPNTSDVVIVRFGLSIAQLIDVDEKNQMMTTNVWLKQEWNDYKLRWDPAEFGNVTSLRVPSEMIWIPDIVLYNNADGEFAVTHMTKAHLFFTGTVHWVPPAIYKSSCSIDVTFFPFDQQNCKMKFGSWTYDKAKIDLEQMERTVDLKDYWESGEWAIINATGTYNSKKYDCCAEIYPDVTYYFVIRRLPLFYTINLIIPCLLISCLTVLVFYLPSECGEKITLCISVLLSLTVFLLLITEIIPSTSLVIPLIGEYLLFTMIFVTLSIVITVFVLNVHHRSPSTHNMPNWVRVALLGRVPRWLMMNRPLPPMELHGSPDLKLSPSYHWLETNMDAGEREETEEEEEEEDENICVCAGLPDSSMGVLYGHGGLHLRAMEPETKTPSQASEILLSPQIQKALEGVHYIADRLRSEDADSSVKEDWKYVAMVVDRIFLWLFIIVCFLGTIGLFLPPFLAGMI
Sequence of rat α2β4 nAChR (P12392 21-495 limits assumed): as the sequence (P12392 21-495 limits assumed) above

rat α6/α3β4 nAChR = rat α6/α3β4 nAChR (Rattus norvegicus, UniProt P04757+P12392+P43143); format: cell-based
Sequence of rat α6/α3β4 nAChR (P04757 whole entry, looked up): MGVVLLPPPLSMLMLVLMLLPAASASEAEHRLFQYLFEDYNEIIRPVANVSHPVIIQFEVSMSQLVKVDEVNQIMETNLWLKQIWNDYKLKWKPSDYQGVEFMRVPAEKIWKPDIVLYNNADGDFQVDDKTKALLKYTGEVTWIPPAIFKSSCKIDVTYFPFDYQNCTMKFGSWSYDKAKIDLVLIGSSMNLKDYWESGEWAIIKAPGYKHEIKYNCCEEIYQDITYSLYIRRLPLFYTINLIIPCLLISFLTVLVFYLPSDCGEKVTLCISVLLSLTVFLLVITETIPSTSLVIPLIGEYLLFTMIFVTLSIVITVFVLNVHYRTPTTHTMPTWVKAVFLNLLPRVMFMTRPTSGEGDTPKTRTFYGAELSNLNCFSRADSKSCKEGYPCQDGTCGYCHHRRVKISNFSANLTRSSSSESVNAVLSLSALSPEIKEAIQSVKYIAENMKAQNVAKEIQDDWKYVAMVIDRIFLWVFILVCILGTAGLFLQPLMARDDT
Sequence of rat α6/α3β4 nAChR (P12392 whole entry, looked up): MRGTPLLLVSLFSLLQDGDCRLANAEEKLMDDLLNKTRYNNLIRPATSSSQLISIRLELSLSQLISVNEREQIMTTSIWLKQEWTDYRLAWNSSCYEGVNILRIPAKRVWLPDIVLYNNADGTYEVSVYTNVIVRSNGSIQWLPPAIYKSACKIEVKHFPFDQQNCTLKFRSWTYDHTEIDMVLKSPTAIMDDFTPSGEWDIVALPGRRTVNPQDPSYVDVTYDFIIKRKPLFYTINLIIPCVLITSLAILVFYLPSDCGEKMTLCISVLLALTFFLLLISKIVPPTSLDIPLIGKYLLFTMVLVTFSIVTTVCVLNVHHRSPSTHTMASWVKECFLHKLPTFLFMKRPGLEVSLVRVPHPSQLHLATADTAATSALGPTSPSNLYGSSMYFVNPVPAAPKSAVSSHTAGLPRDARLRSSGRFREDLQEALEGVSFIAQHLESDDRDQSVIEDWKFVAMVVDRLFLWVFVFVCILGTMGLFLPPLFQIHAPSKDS
Sequence of rat α6/α3β4 nAChR (P43143 whole entry, looked up): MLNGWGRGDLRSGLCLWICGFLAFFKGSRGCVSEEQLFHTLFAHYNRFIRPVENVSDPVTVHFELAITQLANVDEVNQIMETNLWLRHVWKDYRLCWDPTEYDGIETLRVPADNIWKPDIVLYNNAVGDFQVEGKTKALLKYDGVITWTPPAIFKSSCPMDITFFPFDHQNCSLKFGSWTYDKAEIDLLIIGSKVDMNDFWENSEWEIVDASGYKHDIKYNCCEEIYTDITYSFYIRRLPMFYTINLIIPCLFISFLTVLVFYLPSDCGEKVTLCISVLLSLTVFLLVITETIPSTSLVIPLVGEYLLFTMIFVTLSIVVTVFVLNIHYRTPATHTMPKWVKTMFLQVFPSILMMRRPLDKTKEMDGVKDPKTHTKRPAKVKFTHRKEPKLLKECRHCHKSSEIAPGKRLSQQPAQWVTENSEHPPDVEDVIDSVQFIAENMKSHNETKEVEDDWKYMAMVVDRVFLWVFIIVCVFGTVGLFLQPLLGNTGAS

| Compound | inhibition at 0.1 µM (rat α9α10 nAChR) [%] | activity at a concentration of 10 μM (rat α9α10 nAChR) | inhibition at 10 µM (human α9α10 nAChR) [%] | activity against rat α3β2 nAChR (rat α3β2 nAChR) | activity against rat α4β4 nAChR (rat α4β4 nAChR) | activity against rat α4β2 nAChR (rat α4β2 nAChR) | activity against rat α2β4 nAChR (rat α2β4 nAChR) | activity against rat α6/α3β4 nAChR (rat α6/α3β4 nAChR) | also measured |
| --- | --- | --- | --- | --- | --- | --- | --- | --- | --- |
| C[C@@H](N)C(=O)N[C@H]1CSSC[C@@H]2NC(=O)[C@H](CCCNC(=N)N)NC(=O)[C@@H]3CCCN3C(=O)[C@H](CC(=O)O)NC(=O)[C@H](CO)NC(=O)[C@H](CSSC[C@@H](C(=O)N[C@@H](CCCNC(=N)N)C(=O)O)NC(=O)[C@H](CCCNC(=N)N)NC(=O)[C@H](Cc3ccc(O)cc3)NC(=O)[C@H](CCCNC(=N)N)NC2=O)NC1=O [Compound 1] (H-[dA]CCSDPRCRYRCR-OH; disulfide 2-8, 3-12) | 70.6 ± 2 | – | – | – | – | – | – | – | IC50 (rat α9α10 nAChR): 41.1 nM; IC50 (human α9α10 nAChR): > 10000 nM |
| N=C(N)NCCC[C@H](NC(=O)[C@@H]1CSSC[C@H]2NC(=O)[C@@H](NC(=O)CN)CSSC[C@H](NC(=O)[C@H](CCCNC(=N)N)NC(=O)[C@@H]3CCCN3C(=O)[C@H](CC(=O)O)NC(=O)[C@H](CO)NC2=O)C(=O)N[C@@H](CCCNC(=N)N)C(=O)N[C@@H](Cc2ccc(O)cc2)C(=O)N[C@@H](CCCNC(=N)N)C(=O)N1)C(=O)O [Compound 3] | 78.7 ± 2 | – | – | – | – | – | – | – | – |
| N=C(N)NCCC[C@H](NC(=O)[C@@H]1CSSC[C@@H]2NC(=O)[C@@H](NC(=O)CN)CSSC[C@H](NC(=O)[C@H](CCCNC(=N)N)NC(=O)[C@@H]3CCCN3C(=O)[C@H](CC(=O)O)NC(=O)[C@@H](CO)NC2=O)C(=O)N[C@@H](CCCNC(=N)N)C(=O)N[C@@H](Cc2ccc(O)cc2)C(=O)N[C@@H](CCCNC(=N)N)C(=O)N1)C(=O)O [Compound 4] | – | not active | – | – | – | – | – | – | – |
| N=C(N)NCCC[C@H](NC(=O)[C@@H]1CSSC[C@@H]2NC(=O)[C@@H](NC(=O)CN)CSSC[C@H](NC(=O)[C@H](CCCNC(=N)N)NC(=O)[C@@H]3CCCN3C(=O)[C@@H](CC(=O)O)NC(=O)[C@H](CO)NC2=O)C(=O)N[C@@H](CCCNC(=N)N)C(=O)N[C@@H](Cc2ccc(O)cc2)C(=O)N[C@@H](CCCNC(=N)N)C(=O)N1)C(=O)O [Compound 5] | – | not active | – | – | – | – | – | – | – |
| N=C(N)NCCC[C@H](NC(=O)[C@@H]1CSSC[C@@H]2NC(=O)[C@@H](NC(=O)CN)CSSC[C@H](NC(=O)[C@H](CCCNC(=N)N)NC(=O)[C@H]3CCCN3C(=O)[C@H](CC(=O)O)NC(=O)[C@H](CO)NC2=O)C(=O)N[C@@H](CCCNC(=N)N)C(=O)N[C@@H](Cc2ccc(O)cc2)C(=O)N[C@@H](CCCNC(=N)N)C(=O)N1)C(=O)O [Compound 6] | – | not active | – | – | – | – | – | – | – |
| N=C(N)NCCC[C@H](NC(=O)[C@@H]1CSSC[C@@H]2NC(=O)[C@@H](NC(=O)CN)CSSC[C@H](NC(=O)[C@@H](CCCNC(=N)N)NC(=O)[C@@H]3CCCN3C(=O)[C@H](CC(=O)O)NC(=O)[C@H](CO)NC2=O)C(=O)N[C@@H](CCCNC(=N)N)C(=O)N[C@@H](Cc2ccc(O)cc2)C(=O)N[C@@H](CCCNC(=N)N)C(=O)N1)C(=O)O [Compound 7] | – | not active | – | – | – | – | – | – | – |
| N=C(N)NCCC[C@H](NC(=O)[C@@H]1CSSC[C@@H]2NC(=O)[C@@H](NC(=O)CN)CSSC[C@H](NC(=O)[C@H](CCCNC(=N)N)NC(=O)[C@@H]3CCCN3C(=O)[C@H](CC(=O)O)NC(=O)[C@H](CO)NC2=O)C(=O)N[C@@H](CCCNC(=N)N)C(=O)N[C@@H](Cc2ccc(O)cc2)C(=O)N[C@H](CCCNC(=N)N)C(=O)N1)C(=O)O [Compound 11] | – | not active | – | – | – | – | – | – | – |
| N=C(N)NCCC[C@@H]1NC(=O)[C@@H]2CSSC[C@H](NC(=O)CN)C(=O)N[C@@H](CSSC[C@@H](C(=O)N[C@H](CCCNC(=N)N)C(=O)O)NC(=O)[C@H](CCCNC(=N)N)NC(=O)[C@H](Cc3ccc(O)cc3)NC1=O)C(=O)N[C@@H](CO)C(=O)N[C@@H](CC(=O)O)C(=O)N1CCC[C@H]1C(=O)N[C@@H](CCCNC(=N)N)C(=O)N2 [Compound 13] | 97.2 ± 0.05 | – | 70 to 90 | inactive | inactive | inactive | inactive | inactive | – |
| N=C(N)NCCC[C@@H](NC(=O)[C@@H]1CSSC[C@@H]2NC(=O)[C@@H](NC(=O)CN)CSSC[C@H](NC(=O)[C@@H](CCCNC(=N)N)NC(=O)[C@@H]3CCCN3C(=O)[C@H](CC(=O)O)NC(=O)[C@H](CO)NC2=O)C(=O)N[C@H](CCCNC(=N)N)C(=O)N[C@@H](Cc2ccc(O)cc2)C(=O)N[C@H](CCCNC(=N)N)C(=O)N1)C(=O)O [Compound 14] | – | – | 70 to 90 | inactive | inactive | inactive | inactive | inactive | inhibition of ACh-evoked current amplitude (rat α9α10 nAChR): did not inhibit |
| N=C(N)NCCC[C@H]1NC(=O)[C@H](Cc2ccc(O)cc2)NC(=O)[C@@H](CCCNC(=N)N)NC(=O)[C@@H]2CSSC[C@H](NC(=O)CN)C(=O)N[C@@H](CSSC[C@@H](C(N)=O)NC1=O)C(=O)N[C@@H](CO)C(=O)N[C@@H](CC(=O)O)C(=O)N1CCC[C@H]1C(=O)N[C@H](CCCNC(=N)N)C(=O)N2 [Compound 15] (H-GCCSDP[dR]C[dR]Y[dR]C-NH2; disulfide 2-8, 3-12) | – | – | 70 to 90 | inactive | inactive | inactive | inactive | inactive | IC50 (rat α9α10 nAChR): 288 nM; inhibition of ACh-evoked current amplitude (rat α9α10 nAChR): did not inhibit; IC50 (human α9α10 nAChR): 680 nM |
